Measured values reported in US20140349970A1 (ABBVIE INC., priority 2009, published 2014).

The compounds below were run against T1, Syk catalytic domain (aa 356-635 with a C-terminal His-tag) (Homo sapiens, UniProt P43405) (assay: In vitro Syk kinase activity measured by trFRET, Syk catalytic domain). Settings: Syk catalytic domain (aa 356-635), trFRET, 0.001 mM ATP.
T1 construct: His-tag (C); made in house
Assay type: biochemical
Method in brief: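 Kinase reaction: 0.14 nM His-tagged catalytic domain, 0.2 μM biotin-TYR1 peptide, 0.001 mM ATP in 50 mM MOPSO pH 6.5 with MgCl2, MnCl2, DTT, BSA, vanadate, ~60 min at rt, then EDTA quench. Phosphoproduct detected by trFRET (Eu anti-pTyr antibody/streptavidin-APC, 665 nm emission); IC50 from signal in linear range.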
`CS(=O)(=O)c1ccc(-n2c(=O)n(C3CCCCC3)c3c4cc[nH]c4ncc32)cc1` [M.1.24] was tested, and the IC50 was greater than 10 µM.
Compound `COc1ccc(-c2cc3c(ncc4cnc(C)n43)[nH]2)cc1` [M.1.25] has an IC50 of less than 0.1 µM.
Work on `Cc1ncc2cnc3[nH]c(-c4cnn(C)c4)cc3n12` [M.2.1] yielded an IC50 of 0.1 to 1 µM.
For `COc1ccc(-c2nn(C)c3c2cnc2[nH]cc(C#N)c23)cc1` [M.2.3], the IC50 was less than 0.1 µM.
`Cc1nc(-c2ccc(C(C)(C)O)cc2)c2cnc3[nH]cc(C#N)c3n12` [M.2.4] gave an IC50 of less than 0.1 µM.
For `CN1CCN(CCNC(=O)Cc2cccc(-c3cc4c(ncc5cnn(C)c54)[nH]3)c2)CC1` [N.1, 2-(3-(1-Methyl-1,6-dihydropyrazolo[3,4-d]pyrrolo[2,3-b]pyridin-7-yl)phenyl)-N-(2-(4-methylpiperazin-1-yl)ethyl)acetamide], the IC50 was 1 to 10 µM.
In the case of `Cn1ncc2cnc3[nH]c(-c4ccc(C(C)(C)O)cc4)cc3c21` [N.1.1], the IC50 is reported as less than 0.1 µM.
With `CC(=O)NCc1cccc(-c2cc3c(ncc4cnn(C)c43)[nH]2)c1` [N.1.3] the IC50 was less than 0.1 µM.
`CNC(=O)c1cccc(-c2cc3c(ncc4cnn(C)c43)[nH]2)c1` [N.1.4] was tested, and the IC50 was less than 0.1 µM.
For `Cn1ncc2cnc3[nH]c(-c4cccc(C(=O)NCCN5CCOCC5)c4)cc3c21` [N.1.6], the IC50 was less than 0.1 µM.
Work on `COCCCNC(=O)c1cccc(-c2cc3c(ncc4cnn(C)c43)[nH]2)c1` [N.1.7] yielded an IC50 of 0.1 to 1 µM.
With `Cn1ncc2cnc3[nH]c(-c4cccc(C(=O)N5CCCC5)c4)cc3c21` [N.1.8] the IC50 was 0.1 to 1 µM.
`CNC(=O)Cc1cccc(-c2cc3c(ncc4cnn(C)c43)[nH]2)c1` [N.1.9] was tested, and the IC50 was 0.1 to 1 µM.
For `COCCCNC(=O)Cc1cccc(-c2cc3c(ncc4cnn(C)c43)[nH]2)c1` [N.1.11], the IC50 was 0.1 to 1 µM.
For `Cn1ncc2cnc3[nH]c(-c4cccc(CC(=O)NCCN5CCOCC5)c4)cc3c21` [N.1.12], the IC50 was 0.1 to 1 µM.
Compound `Cn1ncc2cnc3[nH]c(-c4cccc(S(N)(=O)=O)c4)cc3c21` [N.1.13] has an IC50 of less than 0.1 µM.
`COc1ccc(-c2cc3c(ncc4cnn(C)c43)[nH]2)cc1` [N.1.14] was tested, and the IC50 was less than 0.1 µM.
Compound `CCc1c(-c2ccc3c(ccn3C)c2)[nH]c2ncc3cnn(C)c3c12` [N.1.15] has an IC50 of 1 to 10 µM.
`CCc1c(-c2cccc3c2ccn3C)[nH]c2ncc3cnn(C)c3c12` [N.1.16] was tested, and the IC50 was greater than 10 µM.
In the case of `Cn1cc(-c2cc3c(ncc4cnn(C)c43)[nH]2)c2cc(F)ccc21` [N.1.17], the IC50 is reported as less than 0.1 µM.
Compound `COc1ccc2[nH]cc(-c3cc4c(ncc5cnn(C)c54)[nH]3)c2c1` [N.1.19] has an IC50 of less than 0.1 µM.
Compound `CCc1c(-c2ccc(C(C)(C)O)cc2)[nH]c2ncc3cnn(C)c3c12` [N.1.20] has an IC50 of less than 0.1 µM.
In the case of `CCc1c(-c2cccc(S(C)(=O)=O)c2)[nH]c2ncc3cnn(C)c3c12` [N.1.21], the IC50 is reported as 0.1 to 1 µM.
Compound `COc1ccc2c(c1)c(-c1cc3c4c(cnc3[nH]1)CCN4C)cn2C` [N.1.22] has an IC50 of 1 to 10 µM.
In the case of `CN1CCc2cnc3[nH]c(-c4ccc(C(C)(C)O)cc4)cc3c21` [N.1.23], the IC50 is reported as 1 to 10 µM.
With `Cn1cc(-c2cc3c(ncc4cnn(C)c43)[nH]2)c2ccccc21` [N.1.24] the IC50 was less than 0.1 µM.
For `COc1ccc2c(c1)c(-c1cc3c(ncc4cnn(C)c43)[nH]1)cn2CC(=O)N(C)C` [N.1.25], the IC50 was less than 0.1 µM.
`COc1ccc2c(c1)c(-c1cc3c(ncc4cnn(C)c43)[nH]1)cn2CC(O)CO` (stereo not drawn) [N.1.26] gave an IC50 of less than 0.1 µM.
`Cn1ncc2cnc3[nH]c(-c4cnc5n4CCC5)cc3c21` [N.1.27] gave an IC50 of 1 to 10 µM.
`COCCNC(=O)Cn1cc(-c2cc3c(ncc4cnn(C)c43)[nH]2)c2cc(OC)ccc21` [N.1.28] showed an IC50 of less than 0.1 µM.
For `COc1ccc2c(c1)c(-c1cc3c(ncc4cnn(C)c43)[nH]1)cn2CC(O)CN(C)C` (stereo not drawn) [N.1.29], the IC50 was less than 0.1 µM.
`CCc1c(-c2cccc(C(=O)NCCN3CCOCC3)c2)[nH]c2ncc3cnn(C)c3c12` [N.1.30] was tested, and the IC50 was 1 to 10 µM.
`CCc1c(-c2ccc(N3CCOCC3)cc2)[nH]c2ncc3cnn(C)c3c12` [N.1.31] gave an IC50 of 0.1 to 1 µM.
`CN(C)S(=O)(=O)c1cccc(-c2cc3c(ncc4cnn(C)c43)[nH]2)c1` [N.1.32] was tested, and the IC50 was less than 0.1 µM.
Compound `CNS(=O)(=O)c1cccc(-c2cc3c(ncc4cnn(C)c43)[nH]2)c1` [N.1.33] has an IC50 of less than 0.1 µM.
For `Cn1ncc2cnc3[nH]c(-c4cccc(S(=O)(=O)NCCO)c4)cc3c21` [N.1.34], the IC50 was less than 0.1 µM.
`CCc1c(-c2cn(C)c3ccc(OC)cc23)[nH]c2ncc3cnn(C)c3c12` [N.1.35] showed an IC50 of 1 to 10 µM.
`CCc1c(-c2ccc(C(=O)NCCN3CCOCC3)cc2)[nH]c2ncc3cnn(C)c3c12` [N.1.36] showed an IC50 of 0.1 to 1 µM.
For `CCc1c(-c2cn(C)nc2C)[nH]c2ncc3cnn(C)c3c12` [N.1.37], the IC50 was 1 to 10 µM.
`CCc1c(-c2cnn(C)c2C)[nH]c2ncc3cnn(C)c3c12` [N.1.38] showed an IC50 of 1 to 10 µM.
`CCCNC(=O)c1cccc(-c2[nH]c3ncc4cnn(C)c4c3c2CC)c1` [N.1.39] gave an IC50 of 1 to 10 µM.
For `CCc1c(-c2cccc(S(=O)(=O)N(CC)CC)c2)[nH]c2ncc3cnn(C)c3c12` [N.1.40], the IC50 was 1 to 10 µM.
Work on `Cn1ncc2cnc3[nH]c(-c4cccc(S(=O)(=O)NCCN5CCOCC5)c4)cc3c21` [N.1.41] yielded an IC50 of 0.1 to 1 µM.
For `COCCNS(=O)(=O)c1cccc(-c2cc3c(ncc4cnn(C)c43)[nH]2)c1` [N.1.42], the IC50 was 0.1 to 1 µM.
For `CCc1c(-c2ccc(OC)cc2)[nH]c2ncc3cnn(C)c3c12` [N.1.43], the IC50 was 0.1 to 1 µM.
Compound `CCc1c(-c2cnn(C)c2)[nH]c2ncc3cnn(C)c3c12` [N.1.44] has an IC50 of 0.1 to 1 µM.
For `CCc1c(-c2ccc(OCCN3CCOCC3)cc2)[nH]c2ncc3cnn(C)c3c12` [N.1.45], the IC50 was 0.1 to 1 µM.
`Cn1ccc2cc(-c3cc4c(ncc5cnn(C)c54)[nH]3)ccc21` [N.1.46] gave an IC50 of 0.1 to 1 µM.
For `Cc1ccc(-c2cc3c(ncc4cnn(C)c43)[nH]2)c(C)c1` [N.1.47], the IC50 was 1 to 10 µM.
`COc1ccc2c(c1)c(-c1nc(C3CCCCC3)n3c1cnc1[nH]ccc13)cn2C` [N.1.48] showed an IC50 of 1 to 10 µM.
Work on `CC(C)(O)c1ccc(-c2nc(C3CCCCC3)n3c2cnc2[nH]ccc23)cc1` [N.1.49] yielded an IC50 of less than 0.1 µM.
In the case of `Cc1nc(-c2ccc(C(C)(C)O)cc2)c2cnc3[nH]ccc3n12` [N.1.50, 2-(4-(1-methyl-6H-imidazo[1,5-a]pyrrolo[2,3-e]pyrazin-3-yl)phenyl)propan-2-ol], the IC50 is reported as less than 0.1 µM.
For `CC(C)(O)c1ccc(-c2nc(C3CC[C@H](NS(=O)(=O)C4CC4)C3)n3c2cnc2[nH]ccc23)cc1` (stereo partly drawn) [N.1.51], the IC50 was less than 0.1 µM.
`C=C(C)c1ccc(-c2nc(C3CC[C@H](NS(=O)(=O)C4CC4)C3)n3c2cnc2[nH]ccc23)cc1` (stereo partly drawn) [N.1.52] gave an IC50 of 0.1 to 1 µM.
Compound `CC(C)(O)c1ccc(-c2ncn3c2cnc2[nH]ccc23)cc1` [N.1.53] has an IC50 of less than 0.1 µM.
`COc1ccc(-c2nc(C)n3c2cnc2[nH]ccc23)cc1` [N.1.54] showed an IC50 of less than 0.1 µM.
`COc1ccc2c(c1)c(-c1nc(C)n3c1cnc1[nH]ccc13)cn2C` [N.1.55] showed an IC50 of 0.1 to 1 µM.
Compound `Cc1ccc(-c2nc(C)n3c2cnc2[nH]ccc23)c2cc[nH]c12` [N.1.57] has an IC50 of 1 to 10 µM.
For `CC(C)(O)c1ccc(-c2nc(C(F)(F)F)n3c2cnc2[nH]ccc23)cc1` [N.1.58], the IC50 was 0.1 to 1 µM.
`CN(C)c1nc(-c2ccc(C(C)(C)O)cc2)c2cnc3[nH]ccc3n12` [N.1.59] gave an IC50 of less than 0.1 µM.
With `CCc1c[nH]c2ncc3c(-c4ccc(C(C)(C)O)cc4)nn(C)c3c12` [N.1.60] the IC50 was 1 to 10 µM.
`CS(=O)(=O)c1ccc(-c2nc([C@H]3CCCNC3)n3c2cnc2[nH]ccc23)cc1` [N.1.61] was tested, and the IC50 was 0.1 to 1 µM.
With `CS(=O)(=O)c1ccc(-c2nc(C3CCCN(C(=O)CCO)C3)n3c2cnc2[nH]ccc23)cc1` (stereo not drawn) [N.1.62] the IC50 was 1 to 10 µM.
In the case of `COCCC(=O)N1CCCC(c2nc(-c3ccc(S(C)(=O)=O)cc3)c3cnc4[nH]ccc4n23)C1` (stereo not drawn) [N.1.63], the IC50 is reported as 1 to 10 µM.
Compound `CN(C)CC1CCN(c2nc(-c3ccc(S(C)(=O)=O)cc3)c3cnc4[nH]ccc4n23)C1` (stereo not drawn) [N.1.64] has an IC50 of 1 to 10 µM.
`CC(C)(O)c1ccc(-c2nc(N3CCC(CN)C3)n3c2cnc2[nH]ccc23)cc1` (stereo not drawn) [N.1.66] was tested, and the IC50 was less than 0.1 µM.
Work on `CCc1c[nH]c2ncc3c(-c4ccc(OC)c(F)c4)nn(C)c3c12` [N.1.67] yielded an IC50 of 0.1 to 1 µM.
In the case of `CCc1c[nH]c2ncc3c(-c4ccc5nccnc5c4)nn(C)c3c12` [N.1.68], the IC50 is reported as 1 to 10 µM.
Compound `CCc1c[nH]c2ncc3c(-c4ccc(OC(C)C)cc4)nn(C)c3c12` [N.1.69] has an IC50 of 0.1 to 1 µM.
With `CCc1c[nH]c2ncc3c(-c4ccc(C(=O)NC5CC5)cc4)nn(C)c3c12` [N.1.70] the IC50 was 0.1 to 1 µM.
`CCc1c[nH]c2ncc3c(-c4ccc(CO)cc4)nn(C)c3c12` [N.1.71] was tested, and the IC50 was 0.1 to 1 µM.
`CCc1c[nH]c2ncc3c(-c4ccc(S(N)(=O)=O)cc4)nn(C)c3c12` [N.1.72] showed an IC50 of 0.1 to 1 µM.
Compound `CCc1c[nH]c2ncc3c(-c4ccsc4)nn(C)c3c12` [N.1.73] has an IC50 of 0.1 to 1 µM.
`CCc1c[nH]c2ncc3c(-c4ccc(OC)cc4)nn(C)c3c12` [N.1.74] gave an IC50 of 1 to 10 µM.
Work on `CCc1c[nH]c2ncc3c(-c4cccnc4)nn(C)c3c12` [N.1.75] yielded an IC50 of 1 to 10 µM.
With `CCc1c[nH]c2ncc3c(-c4cnn(C)c4)nn(C)c3c12` [N.1.76] the IC50 was 0.1 to 1 µM.
With `CCc1c[nH]c2ncc3c(-c4cc(OC)c(OC)c(OC)c4)nn(C)c3c12` [N.1.77] the IC50 was 1 to 10 µM.
`CCc1c(-c2ccc(OCCOC)cc2)[nH]c2ncc3cnn(C)c3c12` [N.1.79] showed an IC50 of 0.1 to 1 µM.
Work on `CCc1c(-c2ccc(OCCN(C)C)cc2)[nH]c2ncc3cnn(C)c3c12` [N.1.80] yielded an IC50 of 1 to 10 µM.
With `COc1ccc2c(c1)c(-c1cc3c(ncc4cnn(C)c43)[nH]1)cn2C(C)C` [N.1.81] the IC50 was 0.1 to 1 µM.
Compound `CC(C)n1cc(-c2cc3c(ncc4cnn(C)c43)[nH]2)c2ccccc21` [N.1.82] has an IC50 of 0.1 to 1 µM.
For `COc1ccc2c(c1)c(-c1cc3c(ncc4cnn(C)c43)[nH]1)nn2C` [N.1.83], the IC50 was 0.1 to 1 µM.
Compound `CC(C)(O)c1ccc(-c2nc(C3CCOCC3)n3c2cnc2[nH]ccc23)cc1` [N.1.84] has an IC50 of 0.1 to 1 µM.
With `COc1ccc(-c2nc(N3CCN(C)CC3)n3c2cnc2[nH]ccc23)cc1` [N.1.85] the IC50 was 1 to 10 µM.
`COc1ccc(-c2nc(C3CCN(C)CC3)n3c2cnc2[nH]ccc23)cc1` [N.1.86] was tested, and the IC50 was 1 to 10 µM.
`COc1ccc(-c2nc(C3CC3)n3c2cnc2[nH]ccc23)cc1` [N.1.87] gave an IC50 of less than 0.1 µM.
`COCCc1nc(-c2ccc(OC)cc2)c2cnc3[nH]ccc3n12` [N.1.88] was tested, and the IC50 was 0.1 to 1 µM.
